This is an account of results in PMC8493801, “Exploring the Monoterpene Indole Alkaloid Scaffold for Reversing P-Glycoprotein-Mediated Multidrug Resistance in Cancer” (Pharmaceuticals, 2021).

Data set [1] concerns human ABCB1-gene transfected L5178Y subline (MDR). Conditions: for RR (relative resistance ratio) = IC50MDR/IC50PAR: RR ≤ 0.5 means CS effect.
The test system of data set [2] is mouse embryonic fibroblasts (NIH/3T3). As to the kind of experiment: MTT antiproliferative assay, non-cancer cells. It counts as cell-based. Conditions: for SI C/B (Selectivity Index): IC50 NIH/3T3 / IC50 MDR; for SI C/A (Selectivity Index): IC50 NIH/3T3 / IC50 PAR; for IC50: NIH3T3, non-cancer mouse embryonic fibroblasts, MTT, read-out: IC50 NIH/3T3 (C). On the procedure: (§1) Non-cancer mouse embryonic fibroblasts (NIH/3T3) were also used.
In addition, the antiproliferative activity of the compounds was also evaluated on non-cancerous mouse embryonic fibroblast cells (NIH/3T3), whose values were compared with those of PAR and MDR cells by evaluation of the selective index (SI) values. […] The highest selective index values (SIC/A = 9.39; SIC/B = 10.79) were found for the derivative bearing the trimethoxyphenyl substituent (17).
(§2) L5178Y mouse T-lymphoma cells (ECACC catalog no. 87111908, US FDA, Silver Spring, MD, USA) were transfected with the pHa MDR1/A retrovirus as previously reported. The ABCB1 (P-gp) overexpressing cells were selected by culturing the infected cells with 60 ng/mL of colchicine (Sigma-Aldrich Chemie GmbH, Steinheim, Germany) to preserve the MDR phenotype. L5178Y (parental, PAR) mouse T-cell lymphoma cells and the human ABCB1-transfected subline were cultured in McCoy’s 5A supplemented with 10% heat-inactivated horse serum, 100 U/L L-glutamine, and 100 mg/L penicillin-streptomycin mixture, all obtained from Sigma-Aldrich. The mouse embryonic fibroblast (NIH 3T3) cell line was purchased from ATCC (CRL-1658) and was cultured in DMEM medium supplemented with 10% fetal bovine serum. These adherent cells were detached using 0.25% trypsin and 0.02% EDTA for 5 min at 37 °C. Before the antiproliferative assay using NIH 3T3 cell line, the cells were seeded in untreated 96-well flat bottomed microtiter plates, following a 4 h incubation period in a humidified atmosphere (5% CO2, 95% air) at 37 °C.

Data set [3] has as its system sensitive L5178Y mouse T-lymphoma cells (PAR). The data set can be described thus: MTT antiproliferative assay, sensitive cells. It counts as cell-based. Conditions: 72 h, mean ± SD. On the procedure: as §1, §2
The assay was performed according to the previously applied experimental settings.
A general note: Tetrazolium dyes change colour on reduction, which living cells bring about.

The target of data set [4] is T1, recombinant human P-gp membranes (Homo sapiens, UniProt P08183).
T1 construct: purchased Promega
T1 sequence (P08183 whole entry): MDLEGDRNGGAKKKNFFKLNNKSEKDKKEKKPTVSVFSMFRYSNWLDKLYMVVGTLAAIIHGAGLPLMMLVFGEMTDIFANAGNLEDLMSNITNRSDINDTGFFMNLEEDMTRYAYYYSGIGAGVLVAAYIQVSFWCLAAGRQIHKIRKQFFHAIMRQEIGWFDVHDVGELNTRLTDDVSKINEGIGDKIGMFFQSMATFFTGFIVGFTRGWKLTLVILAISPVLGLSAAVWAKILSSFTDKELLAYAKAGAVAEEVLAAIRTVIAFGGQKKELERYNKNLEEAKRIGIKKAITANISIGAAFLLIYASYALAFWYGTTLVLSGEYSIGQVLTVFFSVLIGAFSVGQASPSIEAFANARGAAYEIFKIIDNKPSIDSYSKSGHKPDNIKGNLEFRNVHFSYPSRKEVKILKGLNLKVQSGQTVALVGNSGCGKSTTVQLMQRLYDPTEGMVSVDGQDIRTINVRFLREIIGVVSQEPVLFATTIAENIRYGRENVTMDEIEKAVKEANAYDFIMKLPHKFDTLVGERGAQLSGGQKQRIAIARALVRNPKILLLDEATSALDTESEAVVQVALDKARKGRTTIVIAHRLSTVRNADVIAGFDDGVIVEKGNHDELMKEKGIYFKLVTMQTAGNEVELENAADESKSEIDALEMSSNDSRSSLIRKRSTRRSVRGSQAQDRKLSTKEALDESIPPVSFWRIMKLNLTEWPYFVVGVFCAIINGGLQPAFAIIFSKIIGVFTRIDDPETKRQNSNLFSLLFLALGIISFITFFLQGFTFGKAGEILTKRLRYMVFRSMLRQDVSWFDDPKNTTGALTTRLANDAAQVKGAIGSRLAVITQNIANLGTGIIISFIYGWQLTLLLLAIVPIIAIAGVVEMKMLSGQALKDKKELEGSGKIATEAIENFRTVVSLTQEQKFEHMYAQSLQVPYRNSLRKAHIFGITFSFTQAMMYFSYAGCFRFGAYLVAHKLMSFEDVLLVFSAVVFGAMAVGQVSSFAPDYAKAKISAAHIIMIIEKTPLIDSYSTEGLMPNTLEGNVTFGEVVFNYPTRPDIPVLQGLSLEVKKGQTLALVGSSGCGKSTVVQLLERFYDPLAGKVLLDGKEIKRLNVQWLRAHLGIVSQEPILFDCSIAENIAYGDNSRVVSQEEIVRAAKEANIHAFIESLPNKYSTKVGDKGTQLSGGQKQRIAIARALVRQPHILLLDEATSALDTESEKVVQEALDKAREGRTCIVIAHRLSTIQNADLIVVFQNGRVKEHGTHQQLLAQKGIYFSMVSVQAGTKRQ
As to the kind of experiment: P-gp ATPase activity assay (Pgp-Glo). It counts as biochemical. Conditions: 25 µM; for % basal P-gp activity: basal activity = 100%. An excerpt: Once it was established that ATP hydrolysis is directly associated with the P-gp efflux activity, the interaction mode between selected compounds (12, 17, 18, 20, and 29) and this transporter protein was further investigated using human P-gp membranes in the ATPase activity assay (P-gp-Glo^TM) to gather insights about their interaction with P-gp activity, namely, as stimulators or inhibitors. This ATPase activity assay is based on the ATP dependence of the light-generating reaction of firefly luciferase. After incubating P-gp with ATP, the reaction is stopped, and the ATP consumption by P-gp is given by a luciferase-generated luminescent signal due to the remaining unmetabolized ATP. Thus, a greater decrease in the signal means a higher P-gp activity.
Sodium orthovanadate (Vanadate, Na3VO4) is an inhibitor of P-gp ATPase activity; thus, after treating samples with vanadate, no P-gp-dependent ATP consumption is observed. Therefore, the P-gp basal ATP consumption (basal activity) is defined as the difference between the luminescent signal of samples treated with vanadate and untreated. Consequently, the tested compounds were ranked as stimulators or inhibitors by comparing their P-gp ATPase activity with the basal activity. Verapamil (0.5 mM), a known P-gp substrate and activator of the ATPase activity of this transporter, thus causing a decrease in the percentage of luminescence of luciferase when compared with untreated samples (Figure 2), was used as control. The results are represented in Figure 2 as the difference between the luminescence of luciferase observed when treated with the compounds and with vanadate in comparison with the basal activity (100%).
The P-glycoprotein ATPase activity was determined using the Pgp-Glo^TM Assay Systems Promega kit according to the manufacturer’s instructions. Briefly, 20 µL of recombinant human P-gp membranes (1.25 mg/mL), expressing high levels of human P-gp, were incubated in 20 µL of Pgp-Glo^TM assay buffer for 5 min at 37 °C. Compounds were tested at 25 µM sodium orthovanadate (Na3VO4, 0.25 mM) as an inhibitor control, verapamil as a substrate control (0.5 mM), and DMSO at 2% as solvent control. The reaction was initiated by adding 10 µL of 25 mM MgATP and incubated at 37 °C for 40 min. The ATPase reaction was stopped, and after adding 50 µL of ATP Detection Reagent, the samples were incubated at room temperature for 20 min. The luciferase-generated luminescent signal emitted was measured in a CLARIOstar Plus plate reader (BMG Labtech, UK) at 580 nm. The % of basal P-gp activity was calculated through the ratio between the luminescence measured of the P-gp ATPase activity of each compound and the basal activity according to Equation (4).
(4) % basal P-gp activity = LumNa3VO4−Lumtreated/LumNa3VO4−Lumuntreated×100%
Figure 2 Effect of compounds 12, 17, 18, 20, 29, and verapamil (VER) on P-gp ATPase activity. The compounds are identified as P-gp substrates if they stimulate its basal activity (>100%) or as modulators when inhibiting basal activity (<100%). Compounds were tested at 25 µM and verapamil at 0.5 mM. Results were calculated as the means ± SD from experiments performed in triplicates.

For data set [5], the system named is human ABCB1-transfected L5178Y mouse lymphoma cells. The data set can be described thus: Checkerboard combination assay with doxorubicin. It counts as cell-based. Also on record: key to CI at ED50 (combination index): CI <1 synergy, =1 additive, >1 antagonism. As to conditions: MDR cells; for CI at ED50 (combination index): best ratio. On the procedure: The in vitro interactions between the compounds and the well-known antitumor drug and P-gp substrate, doxorubicin, were evaluated in a combination chemotherapy model on human ABCB1-transfected mouse T-lymphoma cells. The nature of drug–drug interactions was assessed by determination of the combination index (CI) using the Chou and Talalay method (Figure 1), and therefore evaluated as synergistic (CI < 1), additive (CI = 1), or antagonistic (CI > 1).
Doxorubicin (2 mg/mL, Teva Pharmaceuticals, Budapest, Hungary) was serially diluted horizontally in 100 µL as previously described, starting with 8.6 µM. The resistance modifier was subsequently diluted vertically in 50 µL; the starting concentration was determined based on the IC50. […] The checkerboard plates were kept for 72 h at 37 °C in a CO2 incubator, and at the end of the incubation period, the cell growth was determined by MTT staining method, as described earlier. Drug interactions were evaluated using Calcusyn software. Each dose–response curve (for individual agents as well as combinations) was fit to a linear model using the median effect equation in order to obtain the median effect value (corresponding to the IC50) and slope (m). The goodness-of-fit was assessed using the linear correlation coefficient, r, and only data from analysis with r > 0.90 were presented. The extent of interaction between drugs was expressed using the combination index, in which a CI value close to 1 indicates additivity, while a CI < 1 is defined as synergy and a CI > 1 as antagonism.

In the case of `CCC1CN(C)C2Cc3c([nH]c4ccccc34)C(=NN=Cc3cc4ccccc4[nH]3)CC1C2C(=O)OC` (stereo not shown) [Compound 20, 3-[((1H-indol-2-yl)methylene)hydrazineylidene]dregamine], in data set [1], the IC50 was found to be 8.73 ± 0.53 µM and the “RR (relative resistance ratio) = IC50MDR/IC50PAR” value is on record as 1.00. Also, in data set [2], the “SI C/B (Selectivity Index)” value was determined as 1.57, the “SI C/A (Selectivity Index)” value is given as 1.58 and the IC50 came to 13.8 ± 0.69 µM. This compound returned an IC50 in data set [3] of 8.72 ± 0.53 µM. Moreover, in data set [4], the “Effect on P-gp ATPase activity” value is listed as “inhibitors of P-gp ATPase activity” and the “% basal P-gp activity” value is less than 100%. Besides, in data set [5], the Interaction entry is “Strong Synergism” and the “CI at ED50 (combination index)” value is 0.291.

With `CCC1CN(C)C2Cc3c([nH]c4ccccc34)C(=NN=Cc3ccc(N(C)C)cc3)CC1C2C(=O)OC` (stereo not shown) [Compound 12, 3-[(4″-(dimethylamino)benzylidene)hydrazineylidene]dregamine], in data set [1], the IC50 was found to be 7.42 ± 0.48 µM and the “RR (relative resistance ratio) = IC50MDR/IC50PAR” value is given as 0.58. In data set [2], the “SI C/B (Selectivity Index)” value came to 1.91, the “SI C/A (Selectivity Index)” value is recorded as 1.10 and the IC50 came out at 14.2 ± 0.59 µM. The same compound showed an IC50 in data set [3] of 12.8 ± 0.16 µM. Further, the “Effect on P-gp ATPase activity” value in data set [4] is “stimulating the P-gp activity”. For the same compound, in data set [5], the Interaction entry was “Strong Synergism” and the “CI at ED50 (combination index)” value stood at 0.231.

Turning to `CCC1CN(C)C2Cc3c([nH]c4ccccc34)C(=NN=Cc3cc(OC)c(OC)c(OC)c3)CC1C2C(=O)OC` (stereo not shown) [Compound 17, 3-[(3″,4″,5″-trimethoxybenzylidene)hydrazineylidene]dregamine], in data set [1], the IC50 was 7.9 ± 0.44 µM and the “RR (relative resistance ratio) = IC50MDR/IC50PAR” value is reported as 0.87. In data set [2], the “SI C/B (Selectivity Index)” value worked out at 10.79, the “SI C/A (Selectivity Index)” value was found to be 9.39 and the IC50 was determined as 85.2 ± 1.62 µM. Further, in data set [3], the IC50 amounted to 9.07 ± 0.67 µM. Also, in data set [4], the “Effect on P-gp ATPase activity” value is recorded as “inhibitors of P-gp ATPase activity” and the “% basal P-gp activity” value was less than 100%. In addition, in data set [5], the Interaction entry is given as “Synergism” and the “CI at ED50 (combination index)” value worked out at 0.309.

For the compound `CCC1CN(C)C2Cc3c([nH]c4ccccc34)C(=NNC(=O)Nc3ccc(Br)cc3)CC1C2C(=O)OC` (stereo not shown) [Compound 29, 3-[2″-((4‴-bromophenyl)carbamoyl)hydrazineylidene]dregamine], in data set [1], the IC50 is 7.4 ± 0.2 µM and the “RR (relative resistance ratio) = IC50MDR/IC50PAR” value is given as 1.13. Further, in data set [2], the “SI C/B (Selectivity Index)” value came out at 1.76, the “SI C/A (Selectivity Index)” value was found to be 1.99 and the IC50 was 13 ± 0.4 µM. Further, the IC50 in data set [3] was found to be 6.56 ± 0.04 µM. In data set [4], the “Effect on P-gp ATPase activity” value is recorded as “inhibitors of P-gp ATPase activity” and the “% basal P-gp activity” value was less than 100%. For the same compound, in data set [5], the Interaction result was “Strong Synergism” and the “CI at ED50 (combination index)” value is recorded as 0.173.

Consider `CCC1CN(C)C2Cc3c([nH]c4ccccc34)C(=NN=Cc3ccc4ccccc4c3)CC1C2C(=O)OC` (stereo not shown) [Compound 18, 3-[(2″-naphthalenylmethylene)hydrazineylidene]dregamine], for which, in data set [1], the IC50 turned out to be 9.58 ± 0.74 µM and the “RR (relative resistance ratio) = IC50MDR/IC50PAR” value amounted to 0.85. Moreover, in data set [2], the “SI C/B (Selectivity Index)” value is recorded as 1.22, the “SI C/A (Selectivity Index)” value was 1.04 and the IC50 was determined as 11.7 ± 1.53 µM. The compound also registered an IC50 in data set [3] of 11.3 ± 0.84 µM. In data set [4], the “Effect on P-gp ATPase activity” value is “inhibitors of P-gp ATPase activity” and the “% basal P-gp activity” value is on record as less than 100%. Besides, in data set [5], the Interaction result is “Strong Synergism” and the “CI at ED50 (combination index)” value is 0.285.
